These results are taken from PubChem BioAssay (NCI).

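Protocol summary: plate cells (96-well), add compound at 5 concentrations, incubate 48 h, interpolate endpoints linearly. Definition used: TGI = concentration required for complete inhibition of growth.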

Among the test systems are A498 renal; HCT-116 colon; K-562 leukemia; MDA-MB-231 breast; MOLT-4 leukemia; NCI-H460 lung; RPMI-8226 leukemia; SF-268 CNS; SF-295 CNS; SN12C renal; SR leukemia; T-47D breast; U251 CNS; EKVX NSCLC; NCI-H23 lung; UACC-62 melanoma; UO-31 renal.
Assay in all cases: DTP human tumour cell line panel, 48 h

With `Cc1ccc(S(=O)(=O)N2CC3OC(C)(C)OC3C2CO)cc1` (stereo not given), the TGI with A498 renal, with HCT-116 colon, in the assay on K-562 leukemia, in the assay with MDA-MB-231 breast, in the assay on MOLT-4 leukemia and in the assay on NCI-H460 lung was more than 100 µM each time. Also, the TGI with RPMI-8226 leukemia, with SF-268 CNS, with SF-295 CNS, with SN12C renal, with SR leukemia and in the assay on T-47D breast was more than 100 µM each time. For the same molecule, the TGI (as a rule, the concentration at which net growth stops) with U251 CNS was more than 100 µM.
Regarding `COc1cc(N=CN(C)C)c2ncccc2c1`, the TGI was more than 100 µM with A498 renal; more than 100 µM with EKVX NSCLC; more than 100 µM with HCT-116 colon; 47 µM in the assay with K-562 leukemia; more than 100 µM in the assay on MDA-MB-231 breast; more than 100 µM with MOLT-4 leukemia. Also, the TGI in the assay with NCI-H23 lung is more than 100 µM; in the assay on RPMI-8226 leukemia, more than 100 µM; with SF-268 CNS, more than 100 µM; in the assay with SF-295 CNS, more than 100 µM; in the assay on SN12C renal, more than 100 µM; with SR leukemia, 19.3 µM. For the same molecule, the TGI in the assay on T-47D breast, in the assay on U251 CNS, in the assay with UACC-62 melanoma and with UO-31 renal was more than 100 µM throughout.
In the case of `Cc1ccc2c(c1)C(=O)/C(=C\c1ccccc1)CCS2(=O)=O`, the TGI is 52.1 µM in the assay with A498 renal; more than 100 µM in the assay with EKVX NSCLC; 18.7 µM with HCT-116 colon; 5.52 µM in the assay on K-562 leukemia; 35.5 µM in the assay with MDA-MB-231 breast; 87.5 µM in the assay with MOLT-4 leukemia. In addition, the TGI with NCI-H23 lung is 40.7 µM; with NCI-H460 lung, 24.9 µM; with SF-268 CNS it was more than 68.7 µM; with SF-295 CNS, 29.6 µM; in the assay with SN12C renal, 53.3 µM; in the assay on SR leukemia it was more than 24.7 µM. Besides, the TGI in the assay with T-47D breast was determined as 49.6 µM; in the assay with U251 CNS it was 31 µM; in the assay on UACC-62 melanoma, 31.9 µM; in the assay on UO-31 renal it was 26.7 µM.
For the molecule `CC(C)CNC(=O)CCc1cccc2c1oc1c(CCN)cccc12`, the concentration for total growth inhibition (TGI) with A498 renal came to 32.3 µM; with EKVX NSCLC, 27.6 µM; in the assay with HCT-116 colon, 21.5 µM; in the assay with K-562 leukemia, 14.2 µM; with MDA-MB-231 breast, 31.6 µM; with MOLT-4 leukemia it was 30.7 µM. For the same molecule, the TGI came to 26.7 µM in the assay on NCI-H23 lung; 36.9 µM with NCI-H460 lung; 31.2 µM in the assay on SF-268 CNS; 31.6 µM with SF-295 CNS; 32.2 µM in the assay with SN12C renal; 29 µM in the assay on SR leukemia. The TGI was 37.1 µM with T-47D breast, 18.9 µM in the assay with U251 CNS, 32 µM in the assay with UACC-62 melanoma and 25.2 µM in the assay with UO-31 renal.
On to `COc1ccc(N(C)S(=O)(=O)c2ccccc2)cc1`, for which the TGI in the assay on EKVX NSCLC, in the assay on HCT-116 colon, in the assay with K-562 leukemia, in the assay with MDA-MB-231 breast, in the assay with MOLT-4 leukemia and in the assay on NCI-H23 lung was more than 100 µM throughout. In addition, the TGI in the assay with NCI-H460 lung, with RPMI-8226 leukemia, with SF-268 CNS, in the assay on SF-295 CNS, with SN12C renal and in the assay on SR leukemia was more than 100 µM in each case. Moreover, the total growth inhibition concentration (TGI) in the assay on T-47D breast, with U251 CNS, with UACC-62 melanoma and in the assay with UO-31 renal was more than 100 µM each time.
For `Cc1nc(C)c(C(=O)NNC(=O)Cc2ccccc2)cc1C(=O)NNC(=O)Cc1ccccc1`, the TGI in the assay with A498 renal, with EKVX NSCLC, with HCT-116 colon, in the assay with K-562 leukemia, in the assay with MDA-MB-231 breast and in the assay on MOLT-4 leukemia was more than 100 µM throughout. Further, the total growth inhibition concentration (TGI) in the assay with NCI-H23 lung, in the assay with NCI-H460 lung, in the assay with RPMI-8226 leukemia, with SF-268 CNS, in the assay with SF-295 CNS and in the assay on SN12C renal was more than 100 µM throughout. The TGI in the assay on T-47D breast, with U251 CNS, with UACC-62 melanoma and with UO-31 renal was more than 100 µM throughout.
`O=C(Nc1cc(C(=O)Nc2cccc(S(=O)(=O)O)c2)cc(C(=O)Nc2cccc(S(=O)(=O)O)c2)c1)c1cccc(C(=O)Nc2cc(C(=O)Nc3cccc(S(=O)(=O)O)c3)cc(C(=O)Nc3cccc(S(=O)(=O)O)c3)c2)c1`: the TGI was more than 100 µM in the assay on A498 renal; more than 100 µM in the assay on EKVX NSCLC; more than 100 µM in the assay on HCT-116 colon; 58.6 µM with K-562 leukemia; more than 100 µM in the assay on MDA-MB-231 breast; more than 100 µM with MOLT-4 leukemia. Moreover, the TGI with NCI-H23 lung, with NCI-H460 lung, in the assay with RPMI-8226 leukemia, with SF-268 CNS, in the assay on SF-295 CNS and in the assay with SN12C renal was more than 100 µM in each case. Moreover, the TGI in the assay with T-47D breast, in the assay with U251 CNS, in the assay with UACC-62 melanoma and in the assay with UO-31 renal was more than 100 µM in each case.
`O=c1[nH]nc(Cc2ccccc2)n1/N=C/c1c(O)ccc2ccccc12`: the concentration for total growth inhibition (TGI) in the assay on A498 renal was 47.4 µM; with EKVX NSCLC it was 57.8 µM; with HCT-116 colon, 45.6 µM; in the assay on K-562 leukemia, 64.4 µM; in the assay on MDA-MB-231 breast, 44.2 µM; with MOLT-4 leukemia, 79.2 µM. Also, the concentration for total growth inhibition (TGI) with NCI-H23 lung was more than 100 µM; in the assay on RPMI-8226 leukemia, 82.5 µM; with SF-268 CNS, 90.6 µM; in the assay on SF-295 CNS it was 69 µM; in the assay with SN12C renal, more than 100 µM; with SR leukemia, 59.9 µM. The TGI is 77.1 µM in the assay with T-47D breast, 38.6 µM in the assay on U251 CNS, more than 100 µM with UACC-62 melanoma and more than 100 µM in the assay on UO-31 renal.
